Source: US20260109709A1 (MIRATI THERAPEUTICS, INC., priority 2021, published 2026)
Structures can show the parent of a compound that is named as a salt. Where two headings read alike, the source gives them in different places.

Tests used:
PRMT5-MEP50 = target: T1, PRMT5-MEP50 (Homo sapiens, UniProt O14744); experiment: SPR binding assay (PRMT5.MTA and PRMT5·SAM surfaces); conditions: steady-state fit
T1 construct: biotin (in vivo biotinylated)
Protocol: In vivo biotinylated PRMT5-MEP50 was diluted to […] in 25 mM Bicine pH 7.6, 100 mM NaCl, 1 mM TCEP, and 0.05% Tween-20 and injected at 5 μl/min flow rate into flow cell 2 (FC2) of a Series S Sensor Chip SA (Cytiva) in a Biacore T200 or in a Biacore 8K plus (Cytiva). SPR screening was performed in MTA running buffer (25 mM Bicine pH 7.6, 100 mM NaCl, 1 mM TCEP, 20 µM MTA, 0.05% Tween-20 and 2% DMSO). The biotinylated PRMT5-MEP50 surface was equilibrated with MTA running buffer for 12 hours prior to the start. […] Subsequently, compound titration was repeated in SAM-running buffer (25 mM Bicine pH 7.6, 100 mM NaCl, 1 mM TCEP, 20 μM SAM, 0.05% Tween-20, and 2% DMSO). […] After double referencing, the steady-state response was extracted for each fragment concentration and was fit to the Langmuir isotherm equation to determine the equilibrium dissociation constant (KD).

PRMT5/MEP50 complex = target: T2, PRMT5/MEP50 complex (Homo sapiens, UniProt O14744); experiment: PRMT5:MEP50 FlashPlate Assay (histone H4 peptide methylation); type: biochemical; conditions: 40 nM H4 (1-15) peptide, 1 μM SAM
T2 construct: purchased Reaction Biology Corporation
T2 sequence (O14744 2-637 limits assumed): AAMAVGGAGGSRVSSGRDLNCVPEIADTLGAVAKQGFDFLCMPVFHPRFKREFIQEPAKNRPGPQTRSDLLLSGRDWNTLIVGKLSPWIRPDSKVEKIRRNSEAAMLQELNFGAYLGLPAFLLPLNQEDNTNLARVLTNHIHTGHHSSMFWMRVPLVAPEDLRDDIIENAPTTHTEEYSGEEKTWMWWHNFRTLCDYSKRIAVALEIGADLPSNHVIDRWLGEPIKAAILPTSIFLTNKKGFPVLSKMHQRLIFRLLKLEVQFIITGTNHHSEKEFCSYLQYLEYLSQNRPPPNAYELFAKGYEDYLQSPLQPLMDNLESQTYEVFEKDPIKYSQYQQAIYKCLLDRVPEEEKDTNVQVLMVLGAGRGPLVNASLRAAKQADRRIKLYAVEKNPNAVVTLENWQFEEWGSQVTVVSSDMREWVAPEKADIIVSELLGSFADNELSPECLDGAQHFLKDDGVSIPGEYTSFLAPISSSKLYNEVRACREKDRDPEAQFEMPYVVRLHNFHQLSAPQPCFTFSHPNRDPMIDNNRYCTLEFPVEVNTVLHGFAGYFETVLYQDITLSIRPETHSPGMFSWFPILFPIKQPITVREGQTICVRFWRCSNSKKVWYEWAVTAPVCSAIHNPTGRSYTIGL
T2 sequence (Q9BQA1 2-342 partner limits assumed): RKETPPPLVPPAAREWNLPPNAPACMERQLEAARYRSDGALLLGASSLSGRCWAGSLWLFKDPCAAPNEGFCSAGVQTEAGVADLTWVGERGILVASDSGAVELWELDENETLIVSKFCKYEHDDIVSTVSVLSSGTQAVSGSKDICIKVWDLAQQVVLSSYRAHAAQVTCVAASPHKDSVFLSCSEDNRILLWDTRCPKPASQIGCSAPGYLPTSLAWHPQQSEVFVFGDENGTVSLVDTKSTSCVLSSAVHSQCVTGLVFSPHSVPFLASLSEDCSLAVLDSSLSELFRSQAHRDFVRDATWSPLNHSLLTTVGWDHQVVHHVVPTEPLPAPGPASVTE
Protocol: The PRMT5 inhibitory activity of compounds of the present invention was determined using a PRMT5: MEP50 FlashPlate Assay and a PRMT5: MEP50 HotSpot Assay (Reaction Biology Corporation).
The assay uses purified human, PRMT5 enzyme to convert S-adenosyl-L-[methyl-3H]methionine plus histone H4 L-arginine to S-adenosyl-L-homocysteine plus histone H4 [methyl-3H]-L-arginine. The assay was carried out using Streptavidin-coated FlashPlates (Perkin Elmer), which contained a scintillant embedded in the plastic of the plate. The histone H4 peptide substrate was conjugated with biotin, which binds to the streptavidin-coated well of the plate, placing the H4 peptide in close proximity to the side well and the scintillant. The transfer of the tritiated methyl group from S-adenosyl-L-[methyl-3H]methionine to the bound histone H4 peptide generated a radiolabeled histone H4, which was quantitated by measuring in a scintillation counter to determine the activity of PRMT5 enzyme in the presence and absence of compound. […] Briefly, compounds of the present invention were solubilized in 100% DMSO at a highest concentration of 10 mM. […] Control samples lacking compound, PRMT5/MEP50 complex or various reaction components also were prepared and processed in parallel with compound test samples. SAH was used as a positive control for assay validation. To measure PRMT5 inhibitory activity, 3 nM PRMT5/MEP50 complex (Reaction Biology Corporation) was preincubated with test compound in assay buffer containing 40 nM histone H4 peptide (amino acids 1-15)-Biotin conjugate for 20 min at room temperature. The enzymatic reaction was initiated by adding 1 μM tritiated S-adenosyl methionine (final concentration) and the reaction is allowed to proceed for 20 min. The reaction was stopped and the amount of bound, tritiated H4 peptide in each sample was determined using a scintillation counter.

[1] = PRMT5.MTA surface, MTA running buffer (20 µM MTA), read-out: KD MTA
[2] = PRMT5·SAM surface, SAM running buffer (20 μM SAM), read-out: KD SAM

T1 sequence (O14744 whole entry): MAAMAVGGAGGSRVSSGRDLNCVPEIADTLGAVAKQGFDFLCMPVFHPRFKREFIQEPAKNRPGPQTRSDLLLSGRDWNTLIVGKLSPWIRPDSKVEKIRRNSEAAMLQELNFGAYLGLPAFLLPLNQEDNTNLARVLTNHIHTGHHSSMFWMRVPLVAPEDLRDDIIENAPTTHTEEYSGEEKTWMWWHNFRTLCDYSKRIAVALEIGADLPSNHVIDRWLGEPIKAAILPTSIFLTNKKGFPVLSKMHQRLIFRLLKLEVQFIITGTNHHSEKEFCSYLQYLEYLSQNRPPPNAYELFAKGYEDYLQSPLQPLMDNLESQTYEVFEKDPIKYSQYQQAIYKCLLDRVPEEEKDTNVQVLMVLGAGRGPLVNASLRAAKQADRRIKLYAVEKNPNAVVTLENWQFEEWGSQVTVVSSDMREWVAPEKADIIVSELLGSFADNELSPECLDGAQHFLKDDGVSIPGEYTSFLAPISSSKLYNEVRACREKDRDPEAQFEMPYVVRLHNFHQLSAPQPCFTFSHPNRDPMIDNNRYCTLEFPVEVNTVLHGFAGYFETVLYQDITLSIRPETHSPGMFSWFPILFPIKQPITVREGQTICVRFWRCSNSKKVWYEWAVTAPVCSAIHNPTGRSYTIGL
T1 sequence (Q9BQA1 whole entry partner): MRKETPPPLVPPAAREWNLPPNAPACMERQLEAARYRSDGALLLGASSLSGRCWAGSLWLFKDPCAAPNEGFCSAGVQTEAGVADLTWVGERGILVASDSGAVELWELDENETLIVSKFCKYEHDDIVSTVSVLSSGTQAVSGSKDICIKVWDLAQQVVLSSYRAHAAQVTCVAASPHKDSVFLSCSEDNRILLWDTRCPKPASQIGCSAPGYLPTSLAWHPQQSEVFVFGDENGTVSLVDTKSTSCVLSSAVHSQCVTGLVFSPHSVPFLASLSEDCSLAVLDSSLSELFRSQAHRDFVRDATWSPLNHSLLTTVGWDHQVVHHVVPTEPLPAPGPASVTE

Row | Kd (PRMT5-MEP50; [1]) | Kd (PRMT5-MEP50; [2]) | IC50 (PRMT5/MEP50 complex; IC50 + 2 μM MTA, plus 2 μM MTA) | IC50 (PRMT5/MEP50 complex; absence of MTA, read-out: IC50) | SMILES
1 | 16.3 µM | 79.6 µM |  |  | COc1c(Cc2cccnc2)cc(C#N)c2c1nc(N)n2C [Example 3-22, 2-amino-7-methoxy-3-methyl-6-(3-pyridylmethyl)benzimidazole-4-carbonitrile hydrochloride]
2 | 26.8 µM | 40.9 µM | > 300 µM | > 300 µM | Cn1c(N)nc2c(Nc3cnc4c(c3)CCCC4)ccc(Cl)c21 [Example 2-4, 7-chloro-1-methyl-N^4-(5,6,7,8-tetrahydroquinolin-3-yl)-1H-benzo[d]imidazole-2,4-diamine hydrochloride]
3 | 49 µM | 65.8 µM | > 300 µM |  | Cn1ccc(-c2ccc3c(c2)nc(N)n3C)n1 [Example 1-2, 1-methyl-5-(1-methyl-1H-pyrazol-3-yl)-1H-benzo[d]imidazol-2-amine]
4 | 0.512 µM | 1.67 µM | 17.9 µM | > 300 µM | Cn1ncc(-c2cccc3c2nc(N)n3C)c1-c1ccccc1C#N [Example 1-87, 2-(4-(2-amino-1-methyl-1H-benzo[d]imidazol-4-yl)-1-methyl-1H-pyrazol-5-yl)benzonitrile hydrochloride]
5 | 0.089 µM | 41.8 µM | > 300 µM |  | CN(Cc1nnc2n1CCOC2)c1ccc2c(c1)nc(N)n2C [Example 1-83, N5-((5,6-dihydro-8H-[1,2,4]triazolo[3,4-c][1,4]oxazin-3-yl)methyl)-N5,1-dimethyl-1H-benzo[d]imidazole-2,5-diamine]
6 | 0.879 µM | 3.67 µM | 16.9 µM | 219 µM | Cn1c(N)nc2cc(Cc3ccc4ccncc4c3)cc(C#N)c21 [Example 3-9, 2-amino-6-(7-isoquinolylmethyl)-3-methyl-benzimidazole-4-carbonitrile]
7 | 16.9 µM | 32.5 µM |  |  | Cn1c(N)nc2c(Nc3cnc4c(c3)CCCC4)ccc(C#N)c21 [Example 3-30, 2-amino-1-methyl-4-((5,6,7,8-tetrahydroquinolin-3-yl)amino)-1H-benzo[d]imidazole-7-carbonitrile]
8 | 7.51 µM | 23.6 µM | > 300 µM | > 300 µM | Cn1c(N)nc2cc(C(=O)c3cccnc3)cc(C#N)c21 [Example 3-16, 2-amino-3-methyl-6-(pyridine-3-carbonyl)benzimidazole-4-carbonitrile]
9 | 0.151 µM | 0.679 µM | 0.527 µM | 10.7 µM | Cn1ncc(-c2ccc(Cl)c3c2nc(N)n3C)c1-c1c(F)cc2ccccc2c1C#N [Example 2-2, 2-[4-(2-amino-7-chloro-1-methyl-benzimidazol-4-yl)-2-methyl-pyrazol-3-yl]-3-fluoro-naphthalene-1-carbonitrile hydrochloride]
10 | 24.5 µM | 51.9 µM | > 300 µM |  | Cn1nccc1-c1ccc2c(c1)nc(N)n2C [Example 1-56, 1-methyl-5-(1-methyl-1H-pyrazol-5-yl)-1H-benzo[d]imidazol-2-amine]
11 | 39.1 µM | 108 µM |  |  | COc1cccc(CN(C)c2ccc3c(c2)nc(N)n3C)c1 [Example 1-48, N5-(3-methoxybenzyl)-N5,1-dimethyl-1H-benzo[d]imidazole-2,5-diamine]
12 | 65.7 µM | 175 µM | > 300 µM | > 300 µM | CN(c1cccnc1)c1cc(Cl)c2c(c1)nc(N)n2C [Example 2-9, 7-chloro-N5-1-dimethyl-N5-(3-pyridyl)benzimidazole-2,5-diamine hydrochloride]
13 | 0.187 µM | 2.75 µM | 17.6 µM | 134 µM | Cn1c(N)nc2cc(Cc3ccccn3)cc(C#N)c21 [Example 3-3, 2-amino-3-methyl-6-(2-pyridylmethyl)benzimidazole-4-carbonitrile]
14 |  | 176 µM | 76.2 µM | > 300 µM | Nc1nc2ncccc2n1Cc1ccccc1 [Example 5-2, 1-benzylimidazo[4,5-b]pyridin-2-amine hydrochloride]
15 | 0.047 µM |  | 29.3 µM | > 300 µM | Cc1cc(-c2cnn(C)c2-c2ccccc2C#N)c2nc(N)n(C)c2c1 [Example 6-2, 2-[4-(2-amino-1,6-dimethyl-benzimidazol-4-yl)-2-methyl-pyrazol-3-yl]benzonitrile hydrochloride]
16 | 44.6 µM | 187 µM | > 300 µM |  | Cn1cc(-c2ccc3c(c2)nc(N)n3C)cn1 [Example 1-53, 1-methyl-5-(1-methyl-1H-pyrazol-4-yl)-1H-benzo[d]imidazol-2-amine]
17 | 24.7 µM |  | > 300 µM | > 300 µM | Cn1c(N)nc2c(C3CCOC3)ccc(Cl)c21 (stereo not shown) [Example 2-8, 7-chloro-1-methyl-4-tetrahydrofuran-3-yl-benzimidazol-2-amine hydrochloride]
18 | 1.52 µM | 48.4 µM | 97.6 µM | > 300 µM | Cn1c(N)nc2cc(Cc3cccnc3)cc(Cl)c21 [Example 2-10, 7-chloro-1-methyl-5-(3-pyridylmethyl)benzimidazol-2-amine hydrochloride]
19 | 0.513 µM | 35.6 µM | 110 µM | > 300 µM | Cn1c(N)nc2cc(Cc3cccnc3)cc(C#N)c21 [Example 3-2, 2-amino-3-methyl-6-(3-pyridylmethyl)benzimidazole-4-carbonitrile]
20 |  |  | 122 µM | > 300 µM | Cn1c(N)nc2cc(Cc3ccccn3)cc(C(F)F)c21 [Example 4-2, 7-(difluoromethyl)-1-methyl-5-(2-pyridylmethyl)benzimidazol-2-amine]
21 |  |  | > 300 µM | > 300 µM | Cn1c(N)nc2cc(Oc3cccnc3)cnc21 [Example 5-3, 3-methyl-6-(3-pyridyloxy) imidazo[4,5-b]pyridin-2-amine]
22 | 0.322 µM | 0.816 µM | 14 µM | > 300 µM | Cn1ncc(-c2cc(Cl)cc3c2nc(N)n3C)c1-c1ccccc1C#N [Example 6-1, 2-[4-(2-amino-6-chloro-1-methyl-benzimidazol-4-yl)-2-methyl-pyrazol-3-yl]benzonitrile]
23 |  |  | 17.8 µM | 198 µM | CCc1cc(-c2cnn(C)c2-c2ccccc2C#N)c2nc(N)n(C)c2c1 [Example 6-3, 2-[4-(2-amino-6-ethyl-1-methyl-benzimidazol-4-yl)-2-methyl-pyrazol-3-yl]benzonitrile hydrochloride]
24 | 4.43 µM | 10.2 µM | > 300 µM | > 300 µM | Cn1nccc1Cc1cc(C#N)c2c(c1)nc(N)n2C [Example 3-8, 2-amino-3-methyl-6-[ (2-methylpyrazol-3-yl)methyl]benzimidazole-4-carbonitrile]
25 |  |  | > 300 µM |  | Cn1c(N)nc2cc(-c3ccnnc3)ccc21 [Example 1-73, 1-methyl-5-(pyridazin-4-yl)-1H-benzo[d]imidazol-2-amine]
26 | 74.2 µM | 203 µM | > 300 µM |  | Cn1c(N)nc2c(Nc3cnc4c(c3)CCCC4)cccc21 [Example 1-19, 1-methyl-N4-(5,6,7,8-tetrahydroquinolin-3-yl)-1H-benzo[d]imidazole-2,4-diamine]
27 | 20.8 µM |  | > 300 µM |  | CC(C)c1nc(Nc2cccc3c2nc(N)n3C)ns1 [Example 1-42, N4-(5-isopropyl-1,2,4-thiadiazol-3-yl)-1-methyl-1H-benzo[d]imidazole-2,4-diamine]
28 |  |  | > 300 µM |  | Cn1c(N)nc2c(Nc3ccncc3)cccc21 [Example 1-31, 1-methyl-N4-(pyridin-4-yl)-1H-benzo[d]imidazole-2,4-diamine]

Row | SMILES | Kd (PRMT5-MEP50; [1]) | Kd (PRMT5-MEP50; [2]) | IC50 (PRMT5/MEP50 complex; IC50 + 2 μM MTA, plus 2 μM MTA) | IC50 (PRMT5/MEP50 complex; absence of MTA, read-out: IC50)
29 | Cn1cc(Cc2cc(C#N)c3c(c2)nc(N)n3C)cn1 [Example 3-6, 2-amino-3-methyl-6-[ (1-methylpyrazol-4-yl)methyl]benzimidazole-4-carbonitrile] | 0.179 µM | 1.94 µM | 44.4 µM | > 300 µM
